Measured values from patent US6818765B1, “Benzene-sulphonamide derivatives and their uses” (Universite de Liege, priority 1999, dated 2004).
Like-named read-outs stand apart in the source and are kept apart here.

Molecular target: T1, thromboxane A2 receptors (TPα) of human platelets (Homo sapiens, UniProt P21731)
T1 construct: endogenous in cells; host or cells: human platelets
T1 sequence (P21731 1-343): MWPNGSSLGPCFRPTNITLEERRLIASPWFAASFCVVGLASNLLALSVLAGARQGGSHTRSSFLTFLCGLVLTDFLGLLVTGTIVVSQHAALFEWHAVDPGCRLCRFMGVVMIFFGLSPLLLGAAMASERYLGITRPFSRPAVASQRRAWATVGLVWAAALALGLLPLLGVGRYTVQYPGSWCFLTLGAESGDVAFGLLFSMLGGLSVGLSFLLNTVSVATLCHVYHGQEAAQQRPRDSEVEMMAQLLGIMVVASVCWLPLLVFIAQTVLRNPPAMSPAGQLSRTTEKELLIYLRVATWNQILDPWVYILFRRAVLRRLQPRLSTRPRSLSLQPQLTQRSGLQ
Assay: Binding test: displacement of [3H]SQ-29.548 from human platelet thromboxane A2 receptors
Conditions: for inhibition at 1 µM: read-out: Affinity: percent of [3H]SQ-29.548 specifically substituted by the examined compound, compound 10^-6 M; for inhibition at 0.1 µM: read-out: Affinity: percent of [3H]SQ-29.548 specifically substituted by the examined compound, compound 10^-7 M
Excerpt: To operate a first selection, the capacity of these compounds to displace in a specific way a tritium ligand, the [^3H]
Cozzi P., Giordani A., Menichincheri M., Pillan A., Pinciroli V., Rossi A., Tonani R., Volpi D., Tamburin M., Ferrario R., Fusar D., Salvati P.,—Agents combining thromboxane receptor antagonism with thromboxane synthase inhibition:[[[2-(1H-imidazol-1-yl)ethylidene]amino]oxy]alkanoic acids.—J. Med. Chem., 1994, 37, 3588-3604.

[1] = read-out: IC 50: concentration required for replacing 50% of [3H]SQ-29.548 bound to receptors TPα

Affinity: percent of [3H]SQ-29.548 specifically substituted by the examined compound, 10^-6M	Affinity: percent of [3H]SQ-29.548 specifically substituted by the examined compound, 10^-7M	Compound	other results
93.1%	–	CC(C)NC(=O)NS(=O)(=O)c1cc([N+](=O)[O-])ccc1NC(C)c1ccccc1 (racemic) [Compound 75]	–
–	–	CC(Nc1ccc([N+](=O)[O-])cc1S(=O)(=O)NC(=O)NC(C)(C)C)c1ccccc1 (racemic) [Compound 76]	IC50: 3.5 nM; inhibition at 1 µM: 97.6%; inhibition at 0.1 µM: 93.5%
93.6%	68.0%	CC(C)NC(=O)NS(=O)(=O)c1cc([N+](=O)[O-])ccc1NC1CCCCCC1 [Compound 1]	–
67.7%	–	CC(C)NC(=O)NS(=O)(=O)c1cc([N+](=O)[O-])ccc1NC1CCCC1 [Compound 2]	–
20.1%	–	Cc1cccc(Nc2ccc([N+](=O)[O-])cc2S(=O)(=O)NC(=NC#N)NC(C)C)c1 [Compound 3]	–
50.0%	–	N#CN=C(NC1CCCCC1)NS(=O)(=O)c1cc([N+](=O)[O-])ccc1NC1CCCC1 [Compound 4]	–
72.1%	–	N#CN=C(NC1CCCCC1)NS(=O)(=O)c1cc([N+](=O)[O-])ccc1NC1CCCCC1 [Compound 5]	–
29.8%	–	Cc1cccc(Nc2ccc([N+](=O)[O-])cc2S(=O)(=O)NC(=NC#N)NC2CCCCC2)c1 [Compound 6]	–
42.9%	–	CC(C)NC(=NC#N)NS(=O)(=O)c1cc([N+](=O)[O-])ccc1NC1CCCCC1 [Compound 7]	–
33.0%	–	CC(C)NC(=NC#N)NS(=O)(=O)c1cc([N+](=O)[O-])ccc1NC1CCCCCC1 [Compound 8]	–
15.4%	–	CC(C)NC(=NC#N)NS(=O)(=O)c1cc([N+](=O)[O-])ccc1NC1CCCCCCC1 [Compound 9]	–
57.7%	–	Cc1cccc(Nc2ccc([N+](=O)[O-])cc2S(=O)(=O)NC(=C[N+](=O)[O-])NC2CCCCC2)c1 [Compound 10]	–
63.7%	–	Cc1cccc(Nc2ccc([N+](=O)[O-])cc2S(=O)(=O)NC(=S)NC(C)C)c1 [Compound 11]	–
67.2%	–	CC(C)NC(=S)NS(=O)(=O)c1cc([N+](=O)[O-])ccc1NC1CCCCCC1 [Compound 12]	–
97.7%	60.3%	CC(C)NC(=O)NS(=O)(=O)c1cc([N+](=O)[O-])ccc1NC1CCCCC1 [Compound 13]	–
92.9%	34.0%	CC(C)NC(=S)NS(=O)(=O)c1cc([N+](=O)[O-])ccc1NC1CCCCC1 [Compound 14]	–
81.0%	16.6%	CC(C)NC(=S)NS(=O)(=O)c1cc([N+](=O)[O-])ccc1NC1CCCCCCC1 [Compound 15]	–
100%	46.1%	O=[N+]([O-])c1ccc(NC2CCCCC2)c(S(=O)(=O)NC(=S)NC2CCCCC2)c1 [Compound 16]	–
97.8%	93.3%	Cc1cccc(Nc2ccc([N+](=O)[O-])cc2S(=O)(=O)NC(=O)NC(C)(C)C)c1 [Compound 19]	IC50 [1]: 3.96 nM
92.2%	44.2%	CC(C)NC(=O)NS(=O)(=O)c1cc([N+](=O)[O-])ccc1NCc1ccccc1 [Compound 21]	–
95.5%	62.9%	O=C(NC1CCCCC1)NS(=O)(=O)c1cc([N+](=O)[O-])ccc1NC1CCCCCCC1 [Compound 23]	–
73.7%	–	Cc1cccc(Nc2ccc(C#N)cc2S(=O)(=O)NC(=O)NC(C)C)c1 [Compound 24]	–
–	–	CC(C)(C)NC(=O)NS(=O)(=O)c1cc([N+](=O)[O-])ccc1NC1CCCCCCC1 [Compound 26]	IC50: 16.9 nM; inhibition at 1 µM: 94.3%; inhibition at 0.1 µM: 93.3%

Affinity: percent of [3H]SQ-29.548 specifically substituted by the examined compound, 10^-6M	Affinity: percent of [3H]SQ-29.548 specifically substituted by the examined compound, 10^-7M	Compound	other results
79.6%	–	CCNC(=O)NS(=O)(=O)c1cc([N+](=O)[O-])ccc1NC1CCCCC1 [Compound 27]	–
81.9%	39.6%	CCNC(=O)NS(=O)(=O)c1cc([N+](=O)[O-])ccc1NC1CCCCCC1 [Compound 28]	–
95.1%	80.8%	Cc1ccccc1Nc1ccc([N+](=O)[O-])cc1S(=O)(=O)NC(=O)NC(C)C [Compound 30]	–
80.5%	42.2%	C=CCNC(=O)NS(=O)(=O)c1cc([N+](=O)[O-])ccc1Nc1ccccc1 [Compound 31]	–
86.7%	46.0%	C=CCNC(=O)NS(=O)(=O)c1cc([N+](=O)[O-])ccc1NC1CCCCC1 [Compound 32]	–
86.6%	52.4%	C=CCNC(=O)NS(=O)(=O)c1cc([N+](=O)[O-])ccc1NC1CCCCCC1 [Compound 33]	–
77.3%	–	C=CCNC(=O)NS(=O)(=O)c1cc([N+](=O)[O-])ccc1NC1CCCCCCC1 [Compound 34]	–
45.0%	–	CCCNc1ccc([N+](=O)[O-])cc1S(=O)(=O)NC(=S)NC(C)C [Compound 35]	–
75.6%	–	CC(C)NC(=S)NS(=O)(=O)c1cc([N+](=O)[O-])ccc1NCc1ccccc1 [Compound 36]	–
72.3%	–	CC(C)NC(=S)NS(=O)(=O)c1cc([N+](=O)[O-])ccc1NC1CCCC1 [Compound 37]	–
77.2%	–	CC(C)NC(=S)NS(=O)(=O)c1cc([N+](=O)[O-])ccc1NC1CCCCC1 [Compound 38]	–
74.5%	–	CCNC(=S)NS(=O)(=O)c1cc([N+](=O)[O-])ccc1NC1CCCCCC1 [Compound 39]	–
75.9%	–	O=[N+]([O-])c1ccc(NC2CCCCCCC2)c(S(=O)(=O)NC(=S)NC2CCCCC2)c1 [Compound 41]	–
92.3%	50.5%	O=[N+]([O-])c1ccc(NC2CCCCC2)c(S(=O)(=O)NC(=S)NCc2ccco2)c1 [Compound 42]	–
50.0%	–	CC(C)NC(=O)NS(=O)(=O)c1cc(C#N)ccc1NC1CCCCC1 [Compound 43]	–
80.2%	51.3%	CCNC(=O)NS(=O)(=O)c1cc([N+](=O)[O-])ccc1NC1CCCCCCC1 [Compound 44]	–
79.9%	50.4%	CCOC(=O)NS(=O)(=O)c1cc([N+](=O)[O-])ccc1NC1CCCC1 [Compound 45]	–
51.9%	–	CC(C)NC(=O)NS(=O)(=O)c1cc([N+](=O)[O-])ccc1NC1CCCCCCCCCCC1 [Compound 48]	–
–	–	Cc1cccc(Nc2ccc([N+](=O)[O-])cc2S(=O)(=O)NC(=O)NC(C)C)c1C [Compound 49]	IC50: 2 nM; inhibition at 1 µM: 98.3%; inhibition at 0.1 µM: 94.9%
95.7%	76.0%	Cc1ccc(Nc2ccc([N+](=O)[O-])cc2S(=O)(=O)NC(=O)NC(C)C)cc1 [Compound 50]	–
64.7%	–	Cc1cccc(Nc2ccc([N+](=O)[O-])cc2S(=O)(=O)NC(=NC#N)NC(C)(C)C)c1 [Compound 51]	–
99.0%	93.9%	Cc1ccccc1Nc1ccc([N+](=O)[O-])cc1S(=O)(=O)NC(=O)NC(C)(C)C [Compound 52]	IC50 [1]: 2.8 nM

Compound	Affinity: percent of [3H]SQ-29.548 specifically substituted by the examined compound, 10^-6M	Affinity: percent of [3H]SQ-29.548 specifically substituted by the examined compound, 10^-7M	other results
CCCNc1ccc([N+](=O)[O-])cc1S(=O)(=O)NC(=O)NC(C)C [Compound 20]	1.6%	–	–
